Experimental data taken from patent publication US20080206287A1, “Use of cyclosporin A to sensitize resistant cancer cells to death receptor ligands” (priority 2006, published 2008).
“Also recorded” adds a separate entry of the source.

Key:
[1] = tested on: PPC-1 cells; test: PPC-1 cell viability (MTT) with or without CH-11 anti-FAS antibody; type: cell-based; conditions: for direct toxicity: compound alone, concentrations up to 80 μM
Protocol: High throughput screening. Screens were performed using a fully integrated, programmable robotic liquid handling system (Biomek® FX, Beckman-Coulter Inc., Fullerton, Calif.), with integrated plate reader (LJL analyst HT 96-384, Sunnyvale, Calif.) and environmentally controlled plate carousel set at 37° C. and 5% CO2:95% air. PPC-1 cells (1×10^4) were seeded overnight into 96 well, flat-bottom plates (Costar, Cambridge, Mass.) in 100 μL of medium containing 2.5% FCS. The next day, aliquots from the 50,000 compound Diversa library were added at a final concentration of 7.5 μg/mL (about 25 μM) in a final concentration of 0.5% (v:v) dimethylsulfoxide (DMSO). CH-11 antibody (100 ng/mL) was then added, and the cells were incubated for 24 hours before assessing cell viability by a 3-(4,5-Dimethylthiazol-2-yl)-2,5-diphenyltetrazolium Bromide (MTT) dye reduction assay (Sigma).
Cell death assays. Cell viability was measured by MTT and MTS assays, essentially as described in Schimmer et al. (Cancer Cell 5:25-35, 2004). Absorbance readings were plotted against a standard curve to derive the corresponding cell number, and cell viability was expressed as a percentage relative to untreated cells. Apoptosis was measured by flow cytometric analysis of Annexin V surface expression after staining cells with FITC-anti-Annexin V and propidium iodide (PI) (Biovision, Mountain View, Calif.), as described in Pedersen et al. (Blood 100:2965-72, 2002).
Statistics. Cytotoxicity induced by compounds used in combination with conventional agents (e.g., CH-11, TRAIL, VP-16 and staurosporine) was evaluated for evidence of synergy toxicity by comparing the slopes of the dose-response curves. If the combination of the potential sensitizing compound with the conventional agent increased the slope of the dose-response curve compared to the slopes of either the sensitizer or the conventional agent alone, then the interaction was considered synergistic. […] Statistical significance was defined as a p<0.01, using two-sided tests. Synergy was confirmed by performing multiple drug dose-effect calculations using the Median Effect methods as described in Chou (“The Median-Effect Principle and the Combination Index for Quantitation of Synergism and Antagonism.” In: D. C. Rideout and T. C. Chou (eds.), Synergism and Antagonism in Chemotherapy, pp. 61-102: Academic Press, Inc., 1991).
Identification of small molecule FAS sensitizers. Resistance to death receptor ligands may permit malignant cells to escape immune surveillance and limit the clinical efficacy of recombinant death receptor ligands such as TRAIL. To identify small molecules that restore sensitivity to death receptor ligands, a cell-based high throughput screen was performed using the FAS and TRAIL-resistant prostate cancer cell line PPC-1 and a commercially available 50,000 compound library. The screens were performed in 96 well plates, to which compounds were added at 7.5 μg/ml (about 25 μM), followed by agonistic anti-FAS monoclonal antibody CH-11 (100 ng/mL). Cell viability was measured 24 hours later by MTT assay. […] The coefficient of variation (CV) for PPC-1 cells treated with CH-11 alone was determined to be 5%, based on 90 replicate determinations. A 50% decrease in cell viability was used as a cut-off for scoring hits.
From the primary screen of 50,000 compounds, 313 reproducible hits were obtained. To determine whether any of the 313 compounds were toxic molecules as opposed to FAS-sensitizers, the 313 compounds were evaluated in secondary screens where PPC-1 cells were treated with increasing concentrations of the compounds in the presence or absence of CH-11 antibody. Through these secondary screens, nine sensitizers were identified that increased CH-11-mediated killing above the cell death produced by treatment of the cells with the compound alone (Table 1). […]

[2] = tested on: OVCAR-3 and T47D tumor lines; test: Extrinsic versus intrinsic pathway stimuli in further tumor lines; type: cell-based
[3] = tested on: FLIP; test: FLIP protein immunoblot; type: cell-based, human; conditions: for levels of FLIP protein (long isoform): PPC-1 cells, with or without CH-11, 24 hours, immunoblot
Protocol: Immunoblot analysis. Protein extracts were obtained by washing cells with phosphate-buffered saline (PBS) [pH 7.4] and suspending the cells in lysis buffer [10 mM Tris (pH 7.4), 150 mM NaCl, 0.1% Triton X-100, 0.5% sodium deoxycholate, and 5 mM EDTA] containing protease inhibitors (Complete tablets; Roche, Indianapolis, Ind.). Immunoblot assays were performed as described in Carter et al. (Blood 105:4043-4050, 2005). Briefly, equal amounts of protein as determined by a Bradford assay (Bradford, Anal. Biochem. 72:248-54, 1976) were subjected to SDS-PAGE (4-20% gradient gels from ISC BioExpress, Kaysville, Utah), followed by transfer to nitrocellulose membranes. Membranes were incubated with mouse monoclonal anti-human FLIP (NF6 clone) (1:500 v/v) (Alexis, San Diego, Calif.), 1:1,000 (v/v) anti-aspase-8 clone 5F7 (Upstate) and mouse monoclonal anti-tubulin (1:2000 v/v) (Sigma Inc). Secondary antibodies consisted of horseradish peroxidase-conjugated goat anti-rabbit IgG or goat anti-mouse IgG (Bio-Rad, Hercules, Calif.). Detection was performed by the enhanced chemiluminescence method (Pierce, Rockford, Ill.).
Effects of sensitizing compounds on FLIP protein. Since FAS-sensitizing compounds 6094911 and 5809354 modulate the extrinsic pathway downstream of TNF-family death receptors but upstream of effector caspases, the effects of those compounds on expression of FLIP, an intracellular antiapoptotic protein that binds caspases-8 and -10 and is capable of suppressing death receptor signaling at a proximal point within the extrinsic pathway, was examined. For these experiments, PPC-1 cells were treated with sensitizing compounds in the presence or absence of CH-11 antibody, then cell lysates were prepared 24 hours later, and analyzed by immunoblotting for FLIP.
The levels of the short isoform of FLIP were less than 5% of total FLIP protein as measured by immunoblotting and quantitative densitometry. Therefore, given the very low levels of the short isoform, the analysis was limited to the effects of the compounds on the long isoform of FLIP.

[4] = tested on: ten tumor cell lines; test: CH-11 killing of a spectrum of malignant cell lines; type: cell-based; conditions: increasing concentrations with or without CH-11
Protocol: Effects of small molecule sensitizers on CH-11 killing of a spectrum of malignant cell lines. To assess the spectrum of activity of the small molecule FAS sensitizers, an additional nine malignant cell lines derived from breast, ovarian, and prostate carcinomas were treated with increasing concentrations of the sensitizers in the presence or absence of CH-11. […] None of the other compounds sensitized more than four of ten tumor lines to CH-11. […] Also, all of the non-responding cell lines, except Colo 205, had detectable levels of FLIP by immunoblotting. Thus, the failure of 609411 and 5809354 to sensitize these tumor lines to anti-FAS antibody was not due to either lack of FAS expression or absence of FLIP, with rare exception.

SMILES	EC50 ([1]; Homo sapiens, PPC-1, PPC1 cells with anti-FAS antibody, read-out: EC50 as a FAS-sensitizer in PPC1 cells)	potency as a FAS-sensitizer relative to 5541203 ([1]; PPC1 cells)	toxicity when added alone relative to 5541203 ([1]; PPC1 cells, without anti-FAS antibody)	synergy with CH-11, median-dose combination index (CI) ([1]; PPC-1 cells, combined with CH-11)	sensitization to extrinsic versus intrinsic pathway stimuli [2]	levels of FLIP protein (long isoform) [3]	direct toxicity ([1]; PPC-1 cells)	tumor cell lines sensitized to CH-11 [4]	levels of FLIP ([3]; non-responding cell lines DU145 and MDA-MB-468)
CCn1c(=N)n(CC(=O)c2cc(C(C)(C)C)c(O)c(C(C)(C)C)c2)c2ccccc21 [compound 5569100, 1-(3,5-Di-tert-butyl-4-hydroxy-phenyl)-2-(3-ethyl-2-imino-2,3-dihydro-benzoimidazol-1-yl)-ethanone]	5.6 µM	approximately 5 times	three times more toxic	did not demonstrate synergy	confirming that the results are not unique to PPC-1 cells	decreased levels of FLIP protein; also recorded: reduced FLIP expression	–	–	–
O=C(CCCOc1ccc(Cl)cc1Cl)NO [compound 5809354, 4-(2,4-dichlorophenoxy)-N-hydroxybutanamide]	–	–	–	–	confirming that the results are not unique to PPC-1 cells	decreased levels of FLIP protein	little direct toxicity	sensitized the same tumor lines with the exception of HT29	decreased
CC(=O)CC(=O)Nc1ccc(Cl)c(C(F)(F)F)c1 [compound 6094911, N-[4-chloro-3-(trifluoromethyl)phenyl]-3-oxobutanamide]	–	–	–	–	confirming that the results are not unique to PPC-1 cells	did not alter levels of FLIP protein	little direct toxicity	sensitized four of ten tumor cell lines to CH-11; also recorded: sensitizing 4 of 10 tumor lines; also recorded: enhanced FAS-induced killing of several tumor cell lines	–
